Key:
[1] = test system: sAPPβ release, SH-SY5Y cells; assay: sAPPβ release assay; type: cell-based; conditions: 17 h incubation
Method: Thaw cells and seed at a conc. of around 10000 cells/well in DMEM/F-12 with Glutamax, 10% FCS and 1% non-essential amino acids to a 384-well tissue culture treated plate, […] cell susp/well. The cell plates were then incubated for 7-24 h at 37° C., 5% CO2. The cell medium was removed, followed by addition of 30 μL compound diluted in DMEM/F-12 with Glutamax, 10% FCS, 1% non-essential amino acids and 1% PeSt to a final conc. of 1% DMSO. The compounds were incubated with the cells for 17 h (overnight) at 37° C., 5% CO2. Meso Scale Discovery (MSD) plates were used for the detection of sAPPβ release. MSD sAPPβ plates were blocked in 1% BSA in Tris wash buffer (40 μL/well) for 1 h on shake at r.t. and washed 1 time in Tris wash buffer (40 μL/well). 20 μL of medium was transferred to the pre-blocked and washed MSD sAPPβ microplates, and the cell plates were further used in an ATP assay to measure cytotoxicity. The MSD plates were incubated with shaking at r.t. for 2 h and the media discarded. 10 μL detection antibody was added (1 nM) per well followed by incubation with shaking at r.t. for 2 h and then discarded. 40 μL Read Buffer was added per well and the plates were read in a SECTOR Imager.

human β-Secretase [2] = target: T1, human β-Secretase (Homo sapiens (Human), UniProt P56817); assay: Diluted TR-FRET assay; type: biochemical; conditions: 50 times less enzyme, 6.5 h reaction time; read-out: IC50 in TR-FRET assay (IC50 from the diluted FRET assay)
Method: (§1) The cDNA for the soluble part of the human β-Secretase (AA 1-AA 460) was cloned using the ASP2-Fc10-1-IRES-GFP-neoK mammalian expression vector. The gene was fused to the Fc domain of IgG1 (affinity tag) and stably cloned into HEK 293 cells.
(§2) The enzyme (truncated form) was diluted to 6 μg/mL (stock 1.3 mg/mL) and the TruPoint BACE1 Substrate to 200 nM (stock 120 μM) in reaction buffer (NaAcetate, chaps, triton x-100, EDTA pH4.5). Enzyme and compound in dimethylsulphoxide (final DMSO concentration 5%) was mixed and pre-incubated for 10 minutes at RT. Substrate was then added and the reaction was incubated for 15 minutes at RT. The reaction was stopped with the addition of 0.35 vol Stop solution (NaAcetate, pH 9). The fluorescence of the product was measured on a Victor II plate reader with excitation wavelengths of 340-485 nm and emission wavelengths of 590-615 nm. […] The dimethylsulphoxide control, instead of test compound, defined the 100% activity level and 0% activity was defined by wells lacking enzyme (replaced with reaction buffer) or by a saturating dose of a known inhibitor, 2-amino-6-[3-(3-methoxyphenyl)phenyl]-3,6-dimethyl-5H-pyrimidin-4-one.
Compounds with a high affinity were further tested in a diluted TR-FRET assay, conditions as described above for the TR-FRET assay, but with 50 times less enzyme and a 6.5 h long reaction time at r.t. in the dark.

human β-Secretase [3] = target: T1, human β-Secretase; assay: TR-FRET assay; type: biochemical
Method: The β-secretase enzyme used in the TR-FRET is prepared as follows:
as §1, §2

T1 sequence (P56817 22-460): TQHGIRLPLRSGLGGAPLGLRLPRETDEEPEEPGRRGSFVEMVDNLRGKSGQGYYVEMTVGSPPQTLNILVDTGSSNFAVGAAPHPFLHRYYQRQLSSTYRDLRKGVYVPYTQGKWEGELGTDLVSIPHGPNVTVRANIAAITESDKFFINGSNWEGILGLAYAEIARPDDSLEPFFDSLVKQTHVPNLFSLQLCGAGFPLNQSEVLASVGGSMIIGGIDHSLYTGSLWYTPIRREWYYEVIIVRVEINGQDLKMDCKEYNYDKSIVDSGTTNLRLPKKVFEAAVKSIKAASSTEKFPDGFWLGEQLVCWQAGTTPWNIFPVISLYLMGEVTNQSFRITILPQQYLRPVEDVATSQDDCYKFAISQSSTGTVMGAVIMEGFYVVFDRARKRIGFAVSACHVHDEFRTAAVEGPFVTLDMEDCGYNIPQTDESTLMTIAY

| IC50 ([1]; Homo sapiens) [nM] | IC50 (human β-Secretase [2]) [nM] | IC50 [1] [nM] | IC50 (human β-Secretase [3]) [nM] | Structure (SMILES) |
| --- | --- | --- | --- | --- |
| 17 | 15 | – | – | CC#Cc1cncc(-c2cc3c(cc2C)C[C@]2(CC[C@@H](OC)CC2)C32N=C(C)C(N)=N2)c1 (some centres unmarked) [Example 2, (1r,4r)-4-Methoxy-5′,5″-dimethyl-6′-[5-(prop-1-yn-1-yl)pyridin-3-yl]-3′H-dispiro[cyclohexane-1,2′-indene-1′,2″-imidazol]-4″-amine] |
| – | 13 | 7.4 | – | CO[C@H]1CC[C@]2(CC1)Cc1cc(F)c(-c3cc(F)cc(C#N)c3)cc1[C@@]21N=C(C)C(N)=N1 (single isomer, unassigned; isomer 1) [9 Isomer 1] |
| – | – | – | 516 | COC1CCC2(CC1)Cc1cc(F)c(Br)cc1C21N=C(C)C(N)=N1 (centres unmarked) [Example 4, 6′-Bromo-5′-fluoro-4-methoxy-5″-methyl-3′H-dispiro[cyclohexane-1,2′-indene-1′,2″-imidazol]-4″-amine] |
| 3 | – | – | 36 | CO[C@H]1CC[C@]2(CC1)Cc1cc(F)c(-c3cncc(Cl)c3)cc1C21N=C(C)C(N)=N1 (some centres unmarked) [Example 7, (1r,4r)-6′-(5-Chloropyridin-3-yl)-5′-fluoro-4-methoxy-5″-methyl-3′H-dispiro[cyclohexane-1,2′-indene-1′,2″-imidazol]-4″-amine] |
| – | – | – | 1660 | CO[C@H]1CC[C@]2(CC1)Cc1cc(C)c(Br)cc1C21N=C(C)C(N)=N1 (some centres unmarked) [Example 1, (1r,4r)-6′-Bromo-4-methoxy-5′,5″-dimethyl-3′H-dispiro[cyclohexane-1,2′-indene-1′,2″-imidazol]-4″-amine] |
| – | – | – | 23 | CO[C@H]1CC[C@]2(CC1)Cc1cc(F)c(-c3cc(Cl)cc(C#N)c3)cc1C21N=C(C)C(N)=N1 (some centres unmarked) [Example 5, 3-[(1s,4s)-4″-Amino-5′-fluoro-4-methoxy-5″-methyl-3′H-dispiro[cyclohexane-1,2′-indene-1′,2″-imidazol]-6′-yl]-5-chlorobenzonitrile] |
| – | – | – | 39 | CO[C@H]1CC[C@]2(CC1)Cc1cc(F)c(OCCCF)cc1C21N=C(C)C(N)=N1 (some centres unmarked) [Example 10, 5′-Fluoro-6′-(3-fluoropropoxy)-4-methoxy-5″-methyl-3′H-dispiro[cyclohexane-1,2′-indene-1′,2″-imidazol]-4″-amine] |
| – | – | – | > 5000 | CO[C@H]1CC[C@]2(CC1)Cc1cc(F)c(-c3cc(F)cc(C#N)c3)cc1[C@]21N=C(C)C(N)=N1 (single isomer, unassigned; isomer 2) [9 Isomer 2] |
| – | – | – | > 4300 | CO[C@H]1CC[C@]2(CC1)Cc1cc(F)c(-c3cc(Cl)cc(C#N)c3)cc1[C@]21N=C(C)C(N)=N1 (single isomer, unassigned; isomer 2) [6 Isomer 2] |
| – | 2.4 | – | – | CO[C@H]1CC[C@]2(CC1)Cc1cc(F)c(-c3cc(Cl)cc(C#N)c3)cc1[C@@]21N=C(C)C(N)=N1 (single isomer, unassigned; isomer 1) [6 Isomer 1] |
| 4.8 | – | – | 23 | CO[C@H]1CC[C@]2(CC1)Cc1cc(F)c(-c3cc(F)cc(C#N)c3)cc1C21N=C(C)C(N)=N1 (some centres unmarked) [Example 8, 3-[(1r,4r)-4″-Amino-5′-fluoro-4-methoxy-5″-methyl-3′H-dispiro[cyclohexane-1,2′-indene-1′,2″-imidazol]-6′-yl]-5-fluorobenzonitrile] |
| 12 | 24 | – | – | CO[C@H]1CC[C@]2(CC1)Cc1cc(C)c(-c3cc(Cl)cc(C#N)c3)cc1C21N=C(C)C(N)=N1 (some centres unmarked) [Example 3, 3-[(1r,4r)-4″-Amino-4-methoxy-5′,5″-dimethyl-3′H-dispiro[cyclohexane-1,2′-indene-1′,2″-imidazol]-6′-yl]-5-chlorobenzonitrile] |

Source: US9000183B2, “Cyclohexane-1,2′-indene-1′,2″-imidazol compounds and their use as BACE inhibitors” (AstraZeneca AB, priority 2012, dated 2015)
